In US10544185B2 (Suzhou Zelgen Biopharmaceuticals Co., Ltd., priority 2015, dated 2020):

Target: T1, farnesoid X receptor (FXR) (Homo sapiens, UniProt Q96RI1)
T1 sequence (Q96RI1 1-486): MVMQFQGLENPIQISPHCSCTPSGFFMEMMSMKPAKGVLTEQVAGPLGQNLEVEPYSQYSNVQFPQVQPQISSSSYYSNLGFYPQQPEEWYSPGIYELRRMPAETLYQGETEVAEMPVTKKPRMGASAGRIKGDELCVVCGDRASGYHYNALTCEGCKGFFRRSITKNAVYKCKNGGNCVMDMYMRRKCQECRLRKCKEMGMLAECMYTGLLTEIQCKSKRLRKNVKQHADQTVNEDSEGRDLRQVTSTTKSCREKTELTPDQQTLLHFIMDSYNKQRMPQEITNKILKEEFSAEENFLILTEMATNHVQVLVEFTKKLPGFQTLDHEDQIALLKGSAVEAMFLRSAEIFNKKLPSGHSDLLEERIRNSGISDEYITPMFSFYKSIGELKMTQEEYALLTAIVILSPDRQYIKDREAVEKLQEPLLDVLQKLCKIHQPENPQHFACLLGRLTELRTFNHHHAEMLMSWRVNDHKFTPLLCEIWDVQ
Assay: Recruitment Coactivator Assay (AlphaScreen) for FXR activation
Type: biochemical
Settings: read-out: activating activity (EC50) for FXR
Description: The farnesoid X receptor (FXR) activation of the compounds of the present invention is determined by Recruitment Coactivator Assay, i.e. AlphaScreen. Specific in vitro pharmacodynamic evaluation experimental program has referred to the literature J Pharmacol Exp Ther 350:56-68, July 2014.

EC50: < 0.2 µM
Substance: 3α, 7[…]-Dihydroxy-6α-(Ethyl-d4)-5β-Cholan-24-Acid [Example 7]
